Experiments:
[1] = Microsomal stability with rat liver microsomes; format: in vitro ADME, Male Wistar rat; details: 50 μM substrate, 1.0 mg/mL protein, 60 minutes at 37° C., pH 7.4
Experimental: (§1) Male Wistar rat liver microsomes (RLM), (protein concentration: 25 mg/ml determined using the Omura and Sato method, total P450: 0.64 nmol/mg protein) were used throughout this study and prepared using an internal protocol. The cryopreserved pooled human liver microsomes (HLM), (pooled mixed sex, ten individual donors, protein concentration: 20 mg/ml, total P450: 0.36 nmol/mg) were purchased from BD Gentest™ (Woburn, Mass.) and used throughout this study.
(§2) The standard incubation mixture (1 ml final volume), was carried out in a 50 mM TRIS (Tris[hydroxymethyl]aminomethane) buffer (pH 7.4) containing 10 μl of acetonitrile (1% of total volume), and 50 μM substrate compounds. After pre-equilibration of the mixture, an appropriate volume of RLM or HLM suspension was added to give a final protein concentration of 1.0 mg/mL. The mixture was shaken for 60 minutes at 37° C. Control incubations were carried out without microsomes. Each incubation was stopped by addition of 1 ml ice-cold acetonitrile, vortexed and centrifuged at 11,000 r.p.m. for 5 min. The supernatants were analysed by LC-DAD-UV and LC-ESI-MS systems to determine the metabolic stability (% substrate residue) and the structure of metabolites respectively (Table 1).
(§3) A Shimadzu HPLC system (Shimadzu, Kyoto, Japan), consisting of two LC-10AD Vp module pumps, an SLC-10A Vp system controller, an SIL-10AD Vp autosampler, and a DGU-14-A on-line degasser were used for the analysis. Chromatographic separation was performed on a Phenomenex Luna C18(2) 150×4.6 mm (5 μm) (Phenomenex srl, Castel Bolognese, Italy) as a stationary phase protected by a C18 SecurityGuard (Phenomenex srl, Castel Bolognese, Italy). The SPD-M10Avp photodiode array detector was used to detect the analytes. LC-Solution 1.24 software was used to process the chromatograms. Aliquots (20 μL) of supernatants obtained from incubations were injected onto the HPLC system and eluted with a mobile phase (flow rate 1.0 mL/min) consisting of a A: 0.5% formic acid solution, B: acetonitrile/methanol 8:2. A Thermo Finningan LCQ Deca XP plus system equipped with a quaternary pump, a Surveyor AS autosampler, a Surveyor photodiode array detector and a vacuum degasser was used for LC/MS analyses (Thermo Electron Corporation, Waltham, Mass.). All the chromatographic separations were performed on a Phenomenex Luna C18(2)150×2 mm (4 μm) (kept at a 35° C.) as a stationary phase protected by a C18 SecurityGuard (Phenomenex srl, Castel Bolognese, Italy). Aliquots (2.0 μl) of supernatants obtained from incubations were injected onto the system and eluted with a mobile phase (flow rate 0.2 ml/min) consisting of a A: 0.2% formic acid solution, B: acetonitrile/methanol 8:2. The eluate was injected into the electrospray ion source (ESI) and MS and MS^n spectra were acquired and processed using Xcalibur® software. The operating conditions on the ion trap mass spectrometer were as follows: Positive mode, spray voltage, 5.30 kV; source current, 80 μA; capillary temperature, 350° C.; capillary voltage, 21.00 V; tube lens offset, 15.00 V; multipole 1 offset, −5.75 V; multipole 2 offset, −9.00 V; sheath gas flow (N2), 55 Auxiliary Units.

NAMPT = target: T1, NAMPT (Homo sapiens, UniProt P43490); assay: Direct inhibition of NAMPT enzymatic activity (Cyclex NAMPT colorimetric Assay Kit); format: biochemical; details: as assessed with a cycling assay
T1 construct: endogenous in cells; host or cells: SH-SY5Y and HeLa
T1 sequence (P43490 whole entry): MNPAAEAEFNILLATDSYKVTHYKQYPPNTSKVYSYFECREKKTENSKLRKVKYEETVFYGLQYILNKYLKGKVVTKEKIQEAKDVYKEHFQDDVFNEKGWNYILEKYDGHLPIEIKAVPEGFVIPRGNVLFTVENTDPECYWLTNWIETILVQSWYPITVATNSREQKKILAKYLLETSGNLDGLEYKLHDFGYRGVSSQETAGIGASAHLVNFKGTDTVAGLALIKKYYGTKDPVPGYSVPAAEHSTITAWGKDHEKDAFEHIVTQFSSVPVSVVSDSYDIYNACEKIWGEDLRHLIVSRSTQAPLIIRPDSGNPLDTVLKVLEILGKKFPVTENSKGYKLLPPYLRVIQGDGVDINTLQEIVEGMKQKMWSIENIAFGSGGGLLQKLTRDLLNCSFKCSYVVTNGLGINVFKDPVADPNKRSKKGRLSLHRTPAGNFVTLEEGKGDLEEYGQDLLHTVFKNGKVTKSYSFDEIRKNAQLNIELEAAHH
Experimental: Determination of the direct activity of compounds on NAMPT was performed using a commercial kit, Cyclex NAMPT colorimetric Assay Kit.

SH-SY5Y, HeLa = assay: MTT cell proliferation assay and trypan blue count (cell viability); format: cell-based; details: cells treated for 48 and 72 hours; read-out: IC50 values (inhibition of cellular proliferation, MTT assay and trypan blue assay)
Experimental: Cell based assays were used to evaluate the possible cytotoxic effects of some compounds. To measure cytotoxic effects two different methods were used, a MTT cell proliferation assay and trypan blue count.
The Trypan blue assay is used to determine the number of viable cells present in a cell suspension. […] Briefly, 8×10^5 cells (SH-SY5Y, HeLa; obtained from ATCC, LGC standards, Sesto San Giovanni) were seeded in 24-well plates and treated for 48 and 72 hours. After the treatments, cells were stained with trypan blue and counted.
To analyze cell viability was used the colorimetric 3-(4,5-dimethylthiazol-2-yl)-2,5-diphenyltetrazolium bromide (MTT) method. The assay is based on the cleavage of the yellow tetrazolium salt MTT to purple formazan crystals by metabolic active cells. Since reduction of MTT can only occur in metabolically active cells, the level of activity is a measure of the viability of cells and conversely the cytotoxic effects of various treatments. Briefly, 8×10^5 cells (SH-SY5Y, code number CRL-2266; and HeLa, code number CCL-2) were seeded in 24-well plates and treated for 48 and 72 hours. Compounds were dissolved in DMSO and were added to the cells to give a final DMSO concentration no greater than 0.5%. Cells were washed once in Locke buffer and 300 μl of MTT (250 μg/ml in Locke buffer) were added before returning the cells to the incubator for 1 h to allow the formation of the purple formazan crystals. After 1 h, 600 μl of isopropanol/0.1 M HCl were added to each well, and the absorbance was read at 570 nm in a plate reader (Victor3V, PerkinElmer Life Sciences). For some compounds a dose response curve and IC50 for the effects on cell viability and proliferation were calculated. Cell lines used were originally purchased from ATCC (LGC standards. Sesto San Giovanni).
To evaluate the ability of each compound to inhibit cellular proliferation, cells were seeded in 24-well plates and treated for 48 and 72 hours. After the treatments the MTT assay and trypan blue assay were performed.

[2] = Metabolites generated from hydrolyses in RLM or HLM incubations (LC-ESI-MS); format: in vitro ADME, rat, human; details: RLM or HLM incubation, 60 minutes at 37° C.
Experimental: as §1, §2, §3

[3] = Microsomal stability with human liver microsomes; format: in vitro ADME; details: 50 μM substrate, 1.0 mg/mL protein, 60 minutes at 37° C., pH 7.4
Experimental: as §1, §2, §3

Structure (SMILES) | RLM stability % substrate residue (area peak) [1] [%] | inhibition of the enzymatic activity of NAMPT (NAMPT) | IC50 (SH-SY5Y, HeLa) [nM] | Metabolites generated from hydrolyses [2] | HLM stability % substrate residue (area peak) [3] [%] | melting point [°C]
O=C(NCCCCCCCn1cc(-c2cccnc2)nn1)Nc1ccccc1-c1ccccc1 [1-([1,1′-biphenyl]-2-yl)-3-(7-(4-(pyridin-3-yl)-1H-1,2,3-triazol-1-yl)heptyl)urea] | >95 | able to inhibit | < 300 | yes (traces) | >98 | 
O=C(NCCCCCCCn1cc(-c2cccnc2)nn1)c1ccccc1-c1cccnc1 [2-(pyridin-3-yl)-N-(7-(4-(pyridin-3-yl)-1H-1,2,3-triazol-1-yl)heptyl)benzamide] | >99 | able to inhibit | < 300 | no | >96 | 
c1cncc(-c2cn(CCCCCCOc3ccccc3-c3cccnc3)nn2)c1 [3-(2-((6-(4-(pyridin-3-yl)-1H-1,2,3-triazol-1-yl)hexyl)oxy)phenyl)pyridine] | >95 | able to inhibit | < 300 | no | >99 | 
O=S(=O)(NCCCCCCCCn1cc(-c2cccnc2)nn1)c1ccccc1-c1ccccc1 [N-(8-(4-(pyridin-3-yl)-1H-1,2,3-triazol-1-yl)octyl) biphenyl-2-sulfonamide] | >99 |  | < 300 | no | >99 | 
O=C(Nc1ccc(CCCn2cc(-c3cccnc3)nn2)cc1)c1ccccc1-c1ccccc1 [N-(4-(3-(4-(pyridin-3-yl)-1H-1,2,3-triazol-1-yl)propyl)phenyl)-[1,1′-biphenyl]-2-carboxamide] | >99 |  | < 300 | no | >98 | 
c1ccc(-c2ccccc2OCCc2ccc(Cn3cc(-c4cccnc4)nn3)cc2)cc1 [3-(1-(4-(2-([1,1′-biphenyl]-2-yloxy)ethyl)benzyl)-1H-1,2,3-triazol-4-yl)pyridine] | >97 |  | < 300 | no | >99 | 
O=C(NCCCCCCn1cc(-c2cccnc2)nn1)c1ccccc1-c1ccccc1 [N-(6-(4-(pyridin-3-yl)-1H-1,2,3-triazol-1-yl)hexyl)-[1,1′-biphenyl]-2-carboxamide] |  | able to inhibit | < 300 |  |  | 
c1ccc(-c2ccccc2OCCCCCCCn2cc(-c3cccnc3)nn2)cc1 [3-(1-(7-([1,1′-biphenyl]-2-yloxy)heptyl)-1H-1,2,3-triazol-4-yl)pyridine] |  | able to inhibit | < 300 |  |  | 
O=C(NCCc1ccc(Cn2cc(-c3cccnc3)nn2)cc1)Nc1ccccc1-c1ccccc1 [1-([1,1′-biphenyl]2-yl)-3-(4-((4-(pyridin-3-yl)-1H-1,2,3-triazol-1-yl)methyl)phenethyl)urea] | >99 |  | < 300 | no | >99 | 
c1ccc(-c2ccccc2OCCCc2ccc(-n3cc(-c4cccnc4)nn3)cc2)cc1 [3-(1-(4-(3-([1,1′-biphenyl]-2-yloxy)propyl)phenyl)-1H-1,2,3-triazol-4-yl)pyridine] | >92 |  | < 300 | no | >98 | 164 to 165
O=C(Nc1ccccc1-c1ccccc1)OCCCCCCCn1cc(-c2cccnc2)nn1 [7-(4-(pyridin-3-yl)-1H-1,2,3-triazol-1-yl)heptyl[1,1′-biphenyl]-2-ylcarbamate] |  | able to inhibit | < 300 |  |  | 
c1ccc(-c2ccccc2OCCCCCCCCn2cc(-c3cccnc3)nn2)cc1 [3-(1-(8-([1,1′-biphenyl]-2-yloxy)octyl)-1H-1,2,3-triazol-4-yl)pyridine] |  | able to inhibit | < 300 |  |  | 
O=C(NCCc1ccc(Cn2cc(-c3cccnc3)nn2)cc1)c1ccccc1-c1ccccc1 [N-(4-((4-(pyridin-3-yl)-1H-1,2,3-triazol-1-yl)methyl)phenethyl)[1,1′-biphenyl]-2-carboxamide] | >99 |  | < 300 | no | >99 | 
c1ccc(-c2ccccc2-c2cn(CCCCCCCn3cc(-c4cccnc4)nn3)nn2)cc1 [3-(1-(7-(4-([1,1′-byphenyl]-2-yl)-1H-1,2,3-triazol-1-yl)heptyl)-1H-1,2,3-triazol-4-yl)pyridine] | >99 |  | < 300 | no | >99 | 
